Assay: in vitro
Conditions: human, hela cells, % viability

SMILES	viability at 28.5 h, 10 µM [%]	viability at 28.5 h, 10 µM (bulk resorufin, single well) [%]
Cc1cc(COc2nc3ccccc3nc2N2CCCC2C(=O)OC(C)(C)C)no1 (stereo not shown) [CBK173753]	85.8	–
CN(C)C(=O)c1ccc(-c2ccc(OC3CCN(C(=O)CCc4cccnc4)CC3)nc2)cc1 [CBK155049]	93.3	–
c1ccc(Sc2cccc3ccccc23)nc1 [CBK085856]	91.8	–
Cc1cccnc1C(NC(=O)C1CCN(Cc2cccn2C)CC1)c1ccc(Cl)cc1 (stereo not shown) [CBK148174]	110	–
CNC(=O)C1(Cc2ccccc2-c2ccccc2)CCN(C(=O)Cc2ccc(C)cc2)CC1 [CBK286274]	88.4	–
CCSc1ccc(-c2cn3ccnc3c(N3CCN(CCN(C)C)CC3)n2)cc1 [CBK066662]	92.8	–
CN(CC(N)=O)c1nc(-c2cccnc2)nc2ccccc12 [CBK306346]	87	–
Cc1cc(Cl)cc(Br)c1OCCNCCN(C)C [CBK267791G]	102	–
O=C1N=C(NC2C3CC4CC(C3)CC2C4)OC12CCCC2 (stereo not shown) [CBK113576]	94.2	–
CCC(C)NC(=O)CSc1nnc(-c2cccs2)n1CC (stereo not shown) [CBK296960]	86.3	–
Cc1nc(C2CCCCN2C(=O)COc2ccccc2)ncc1C(=O)Nc1ccc(F)cc1 (stereo not shown) [CBK285871]	98.6	–
CC(C)C(=O)N1CCC(n2nc(-c3cccs3)oc2=O)CC1 [CBK282422]	103	–
O=C(N/N=C1/CN2CCC1CC2)c1cccc(O)c1 [CBK262188C]	–	93.5
C=C(C)CN1CCN(C(=O)c2ccnc3ccc(Cl)cc23)CC1 [CBK282617]	111	–
CCCCc1cc(=O)[nH]c(N2CCOCC2)n1 [CBK003851]	102	–
OCCN1CCN(c2nccnc2-c2cccs2)CC1 [CBK088811]	106	–
COc1cccc(CC(=O)NCCNc2cccc(F)c2C#N)c1 [CBK305684]	78.5	–
CC1Cc2cc(-c3cncn3CC(=O)NC(C)(C)C)ccc2N1C (stereo not shown) [CBK281699]	77.3	–
CCc1ccc(OCC(O)Cn2nnc(-c3ccc(CN4CCC(C)CC4)cc3)n2)cc1 (stereo not shown) [CBK161437T]	111	–
O=C(O)c1ccc2c(c1)C(=O)N(c1ccc(-c3ccc(N4C(=O)c5ccc(C(=O)O)cc5C4=O)cc3)cc1)C2=O [CBK261187]	99.3	–
COc1ccc(C(=O)NC(NC(=S)Nc2cccc3cccnc23)C(Cl)(Cl)Cl)cc1 (stereo not shown) [CBK261028]	94.6	–
O=C(O)c1nsnc1C(=O)O [CBK278311K]	114	–

SMILES	viability at 28.5 h, 10 µM [%]	viability at 28.5 h, 10 µM (bulk resorufin, single well) [%]
CC(Sc1nc(-c2cccnc2)ccc1C#N)C(=O)O (stereo not shown) [CBK267452]	90.7	–
O=C(Cc1ccc2c(c1)CCCC2)Nc1cccc(-c2nnn[nH]2)c1 [CBK297129]	114	–
COc1ccc(C2CCN(CC(=O)NCc3ccco3)CC2)cc1 [CBK283562]	103	–
O=C(Nc1ccccc1N1CCNCC1)C1(c2ccccc2)CCCCC1 [CBK028281T]	99.9	–
CN(C)Cc1ccc(C(=O)NCC(C)(C)N2CCCCC2)cc1 [CBK281865]	104	–
O=C(c1ccco1)N1CCC(n2nc(C3CC3)ccc2=O)CC1 [CBK282350]	109	–
COc1ccc(CCNc2c3c(c(C#N)c4nc5ccccc5n24)CCC3)cc1OC [CBK263147]	97.9	–
CC(C)[C@H](CO)Nc1nc(-c2cccc(OC(F)(F)F)c2)cnc1N [CBK063957]	85.7	–
CN(CCCNC(=O)c1ncoc1-c1cccs1)c1ccccc1 [CBK282248]	103	–
OCCc1ccc(Nc2cc(-c3cccnc3)ncn2)cc1 [CBK090768]	114	–
CC(C)(C)c1cc(CN2CCN(c3ccccn3)CC2)cc(C(C)(C)C)c1O [CBK261520]	117	–
CCOc1ccsc1C(=O)N1CCc2ccccc2C1 [CBK200339]	95.1	–
COc1ccc(C(C)C)cc1-c1cncc(N2CCC(C(=O)O)CC2)n1 [CBK037900]	104	–
COC(=O)CN1CCCC[C@H]2CN(C(=O)Cc3ccsc3)C[C@H]21 [CBK285509]	111	–
CCc1ccc(NS(=O)(=O)c2cnn(CC)c2)cc1 [CBK270314]	101	–
c1ccc2oc(SCCCCSc3nc4ccccc4o3)nc2c1 [CBK025465]	97.7	–
O=C1NCC2(CCN(C(=O)c3cccs3)CC2)Oc2ccccc21 [CBK282917]	100	–
Cc1ccc(C(=O)N2CN(C(=O)CNC(C)(C)C)CC2(C)C)cc1 [CBK089575C]	88.6	–
CCc1ccc(CNC(=O)Cn2nnc(-c3ccc(CNC4CCC4)cc3)n2)cc1 [CBK155006T]	111	–
O=C(Nc1cc(Cl)ccc1Cl)c1ncn[nH]1 [CBK028834]	92.9	–
O=C1N=C(NC2CCCCCC2)SC1CC(=O)N(Cc1ccccc1)c1ccccc1 (stereo not shown) [CBK067394]	85.2	–
CCOC(=O)c1c(C)oc2ccc(O)c(CN3CCCCC3)c12 [CBK263838C]	103	–

SMILES	viability at 28.5 h, 10 µM [%]	viability at 28.5 h, 10 µM (bulk resorufin, single well) [%]
OCn1nc(-c2ccc(Cl)cc2Cl)oc1=S [CBK288410]	107	–
COc1ccc(-c2nc(NC(=O)c3cnccn3)cnc2-c2ccc(F)cc2)cc1 [CBK037150]	104	–
CCc1ccc(Oc2c[nH]nc2-c2ccc(OCc3cnn(-c4ccccc4)c3)cc2O)cc1 [CBK266233]	91.4	–
COc1ncc(-c2cnc3[nH]c(=O)n([C@H](C)c4ccccc4)c3n2)cn1 [CBK064401]	85.3	–
COCC(=O)Nc1c[nH]nc1C1CCCN(c2cccc(F)c2C#N)C1 (stereo not shown) [CBK305395]	86	–
O=C(O)CCc1ccc(-c2ccc(F)cc2)n1CCc1ccccc1 [CBK265936]	108	–
FC(F)(F)c1cccc(OCCN2CCNCC2)n1 [CBK113291]	91.5	–
Cc1c(C(=O)N2CCCC(c3cnccn3)C2)oc2c(F)cccc12 (stereo not shown) [CBK285302]	96.3	–
Cn1cccc1C(=O)Nc1cc2ccccc2c(N2CCNCC2)n1 [CBK036347T]	95.5	–
COc1cncc(-c2cc(N3CCC(N4CCCCC4)CC3)ncn2)c1 [CBK090964]	90.3	–
O=C(CN1C(=O)c2ccccc2C1=O)Nc1sc2c(c1C(=O)NCc1ccco1)CCCC2 [CBK265670]	87.9	–
CC1CCC(C(N)=O)CN1c1cc(=O)n2ccccc2n1 (stereo not shown) [CBK304835]	104	–
COc1cc(C2c3c(oc4ccc(Cl)cc4c3=O)C(=O)N2CC2CCCO2)ccc1OCc1ccccc1 (stereo not shown) [CBK267581]	89.5	–
CCCC(=O)NCC(C)c1nsc(NS(=O)(=O)c2cccc(Cl)c2C)n1 (stereo not shown) [CBK200053]	96	–
NC(=O)c1c(NC(=S)NC(=O)c2ccccc2Br)sc2c1CCC2 [CBK265543]	89.3	–
O=c1[nH]c(=O)c2cc(S(=O)(=O)NC3CCN(Cc4ccccc4)C3)ccc2[nH]1 (stereo not shown) [CBK286380]	109	–
COc1cc(C(=O)N2CCC3(CC2)CC(=O)c2ccc(-c4ccc(NS(C)(=O)=O)cc4)cc2O3)cc(OC)c1C [CBK170163]	90.8	–
N#Cc1ccc(Cn2nc(NC(=O)c3ccco3)c3ccccc32)cc1 [CBK048260]	91.8	–
COc1cc(F)ccc1-c1cnc(N)c2ncccc12 [CBK067585]	81.4	–
CC(C)CN1C(=O)COC[C@@H]1[C@H](O)c1ccc(NC(=O)c2cccnc2)cc1 [CBK289692]	105	–

Reference: publication PMC12040169 (PLOS Biology, 2025)
